Laboratory results reported in patent publication EP0573883A1, “Utilization of 3 substituted aryl-5-alkyl-isoxazole-4-carboxylic acid derivatives against endoparasites new 3-substituted aryl-5-alkyl-isoxazole-4-carboxylic acid derivatives and process for their preparation” (BAYER AG, priority 1992, dated 1993).

Tests used:
[1] = test system: Trichostrongylus colubriformis; assay: In vivo nematode test, Trichostrongylus colubriformis / sheep (faecal egg count before and after treatment); conditions: experimentally infected sheep (Schaf), treated after the prepatent period, pure active substance in gelatin capsules, oral, dose giving complete cessation of egg excretion, read-out: Dosis effectiva
Description: Trichostrongylus colubriformis / Schaf
Experimentell mit Trichostrongylus colubriformis infizierte Schafe wurden nach Ablauf der Präpatenzzeit des Parasiten behandelt. Die Wirkstoffe wurden als reiner Wirkstoff in Gelatinekapseln oral appliziert.
(§1) Der Wirkungsgrad wird dadurch bestimmt, daß man die mit dem Kot ausgeschiedenen Wurmeier vor und nach der Behandlung quantitativ auszählt.
(§2) Ein völliges Sistieren der Eiausscheidung nach der Behandlung bedeutet, daß die Würmer abgetrieben wurden oder so geschädigt sind, daß sie keine Eier mehr produzieren (Dosis effectiva).
(§3) Geprüfte Wirkstoffe und wirksame Dosierungen (Dosis effectiva) sind aus der nachfolgenden Tabelle ersichtlich.

[2] = test system: Haemonchus contortus; assay: In vivo nematode test, Haemonchus contortus / sheep (faecal egg count before and after treatment); conditions: experimentally infected sheep (Schaf), treated after the prepatent period, pure active substance in gelatin capsules, oral, dose giving complete cessation of egg excretion, read-out: Dosis effectiva
Description: Haemonchus contortus / Schaf
Experimentell mit Haemonchus contortus infizierte Schafe wurden nach Ablauf der Präpatenzzeit des Parasiten behandelt. Die Wirkstoffe wurden als reiner Wirkstoff in Gelatinekapseln oral appliziert.
as §1, §2, §3

SMILES: CCCCCCCCCCCCCCCCCCNC(=O)c1c(-c2c(Cl)cccc2Cl)noc1CC [Beispiel 1, N-Oktadecyl-3-(2,6-dichlor-phenyl)-5-ethyl-isoxazol-4-carbonsäureamid]
- minimal effective dose [1]: 10 mg/kg
- minimal effective dose [2]: 5 mg/kg

SMILES: Cc1ccccc1NC(=O)c1c(-c2c(F)cccc2Cl)noc1C [Beispiel 221]
- minimal effective dose [2]: 5 mg/kg

SMILES: Cc1ccc(OC(=O)c2c(-c3c(Cl)cccc3Cl)noc2C)cc1 [Beispiel 59]
- minimal effective dose [1]: 5 mg/kg
- minimal effective dose [2]: 10 mg/kg

SMILES: Cc1onc(-c2c(F)cccc2Cl)c1C(=O)Nc1ccc(Cl)cc1F [Beispiel 230]
- minimal effective dose [1]: 5 mg/kg
- minimal effective dose [2]: 10 mg/kg

SMILES: Cc1onc(-c2c(Cl)cccc2Cl)c1C(=O)Nc1cc(F)cc(F)c1 [Beispiel 103]
- minimal effective dose [2]: 10 mg/kg

SMILES: CCCCCCCCCCCCCCCCCCNC(=O)c1c(-c2c(Cl)cccc2Cl)noc1C [Beispiel 83]
- minimal effective dose [1]: 10 mg/kg
- minimal effective dose [2]: 10 mg/kg

SMILES: Cc1ccc(NC(=O)c2c(-c3c(Cl)cccc3Cl)noc2C)cc1 [Beispiel 119]
- minimal effective dose [1]: 10 mg/kg
- minimal effective dose [2]: 5 mg/kg

SMILES: Cc1ccccc1NC(=O)c1c(-c2c(Cl)cccc2Cl)noc1C [Beispiel 116]
- minimal effective dose [1]: 5 mg/kg
- minimal effective dose [2]: 10 mg/kg

SMILES: CCc1onc(-c2c(Cl)cccc2Cl)c1C(=O)Nc1ccc(SC(F)(F)F)cc1 [Beispiel 127]
- minimal effective dose [1]: 5 mg/kg
- minimal effective dose [2]: 10 mg/kg

SMILES: Cc1onc(-c2c(Cl)cccc2Cl)c1C(=O)Oc1ccc(Cl)cc1 [Beispiel 62]
- minimal effective dose [1]: 10 mg/kg
- minimal effective dose [2]: 10 mg/kg
